From patent US5872210A (priority 1995, dated 1999)
Read-outs that look alike come from different tables or passages of the source. Where a SMILES comes first, the peptide text is derived from it. Where no end group is shown, it is not given here.

Key:
HIV-1 protease [1] = target: T1, HIV-1 protease (Human immunodeficiency virus type 1 group M subtype B, UniProt P04585); assay: biochemical
Procedure: HIV-1 protease was obtained and its active site concentration was determined at 25° C. Purified enzyme was stored as a 5-8 μM stock solution in 50 mM NaOAc (pH 5.0), 1 mM DTT, 1 mM EDTA, 0.05% reduced Triton X-100 at -80° C. Porcine pepsin was prepared as 1-2 mg/ml in 50 mM formic acid (pH 3.0). The peptide concentrations were adjusted for their protein content.
HIV-1 protease activity was measured at 25° C. using substrate I (Lys-Ala-Arg-Val-Nle-Phe (NO2) -Glu-Ala-Nle-NH2 wherein Nle is norleucine and Phe (NO2) is 4-nitrophenylalamine). In a typical assay, 2.5 μl of enzyme was added to 97.5 μl of buffer and 2.5 mM DTT in the presence or absence of varying concentrations of inhibitor. The reaction was initiated by the addition of 10 μl of a 4 mM solution of substrate I in water and monitored by following the decrease in absorption at […] in a 100 μl spectrophotometric cell. Pepsin was assayed using substrate II (Phe-Gly-His-Phe(NO2)-Phe-Ala-PheOCH3). […] Concentrations of substrate solutions were determined spectrophotometrically at […].
The enzyme was assayed in the presence of the inhibitor in 50 mM sodium formate at pH 4.25 and 2.5 mM DTT. […] Peptides 12a and 12b were assayed at pH 4.4 and contained 0.083% and 0.02% DMSO, respectively.

HIV-1 protease [2] = target: T1, HIV-1 protease; assay: HIV-1 protease hydrolysis of synthetic cleavage-site peptide substrates (RP-HPLC, Lineweaver-Burk); format: biochemical
Procedure: […] Reactions were terminated with 190 μl of a solution of 8M guanidine hydrochloride and 1% trifluroacetic acid (TFA) and subjected to reverse-phase high performance liquid chromotography ("RP-HPLC") on a C18 column. The substrate and cleavage products were separated with a linear gradient of 0 to 50% acetonitrile in water containing 0.05% TFA. The identity of the cleavage products was confirmed by electrospray mass spectroscopy. Peak areas were integrated using the Turbochrom 4 software (Perkin Elmer, San Jose, Calif.). Lineweaver-Burk analysis was used to determine kcat and Km.

mature HIV-1 protease = assay: 50 mM sodium acetate, pH 5.0 or 100 mM sodium phosphate at pH 5.5 containing 1 mM DTT, 1 mM EDTA, 1M NaCl; conditions: 37° C.
HIV-1 protease [3] = target: T1, HIV-1 protease; assay: biochemical; conditions: 1M NaCl, 50 mM sodium formate, pH 4.0, 2.5 mM DTT, 25° C.
[4] = Ki, pH 4.4, 0.083% (12a) and 0.02% (12b) DMSO, 1/V vs [I]
[5] = Ki, 50 mM sodium formate pH 4.25, 2.5 mM DTT, substrate I 390 μM, 25° C., peptides 1, 2, 4 from apparent Km vs [I], others from 1/V vs [I]
[6] = Ki, NaCl 0 M, 50 mM sodium formate pH 4.25, 2.5 mM DTT, 1/V vs [I]
[7] = Ki, NaCl 1 M, 50 mM sodium formate pH 4.25, 2.5 mM DTT, 1/V vs [I]

## FLREDLAF [Peptide 1, Phe--Leu--Arg--Glu--Asp--Leu--Ala--Phe]
HIV-1 protease [1]
  Ki: 98 ± 10 µM

## SQNY*PIVQ
HIV-1 protease [2]; Gag cleavage sites
  kcat /Km: 45000 M⁻¹ s⁻¹

## N[C@@H](CC(=O)O)C(=O)N[C@@H](CC(=O)O)C(=O)N[C@@H](Cc1ccccc1)C(=O)O [Peptide 12a, Asp--Asp--Phe] (H-Asp-Asp-Phe-OH)
HIV-1 protease [1]; [4]
  Ki: 43 ± 7 µM

## PGNF*LQSR
HIV-1 protease [2]; Gag cleavage sites
  kcat /Km: 600 M⁻¹ s⁻¹

## CC(C)C[C@H](NC(=O)[C@H](CC(=O)O)NC(=O)[C@@H](N)CC(=O)O)C(=O)O [Peptide 9, Asp--Asp--Leu] (H-Asp-Asp-Leu-OH)
HIV-1 protease [1]; [5]
  Ki: 140 ± 6 µM

## Glu--Lys--Phe (EKF) [Peptide 11]
HIV-1 protease [1]; 50 mM sodium formate pH 4.25, 2.5 mM DTT, substrate I 390 μM, 25° C., peptides 1, 2, 4 from apparent Km vs [I], others from 1/V vs [I], read-out: Ki
  Ki: 2010 ± 360 µM

## DLAFLQGK
Mature HIV-1 protease
  cleaved bond: Phe-Leu

## N[C@@H](Cc1ccccc1)C(=O)N[C@@H](CC(=O)O)C(=O)N[C@@H](CC(=O)O)C(=O)N[C@@H](Cc1ccccc1)C(=O)O [Peptide 12b, Phe--Asp--Asp--Phe] (H-FDDF-OH)
HIV-1 protease [1]; [4]
  Ki: 55 ± 14 µM

## DLAFLQGK [DLAF*LQGK, Asp-Leu-Ala-Phe-Leu-Gln-Gly-Lys]
HIV-1 protease [2]; Pol cleavage sites
  kcat /Km: 1200 M⁻¹ s⁻¹

## ATIM*MQRG
HIV-1 protease [2]; Gag cleavage sites
  kcat /Km: 74000 M⁻¹ s⁻¹

## SFNF*PQIT
HIV-1 protease [2]; Pol cleavage sites
  kcat /Km: 7000 M⁻¹ s⁻¹

## CC(C)C[C@H](NC(=O)[C@H](CC(=O)O)NC(=O)[C@@H](N)CCC(=O)O)C(=O)N[C@@H](C)C(=O)O [Peptide 3, Glu--Asp--Leu--Ala] (H-EDLA-OH)
HIV-1 protease [1]; [5]
  Ki: 160 ± 20 µM

## N[C@@H](CC(=O)O)C(=O)N[C@@H](CCC(=O)O)C(=O)O [Peptide 14, Asp--Glu] (H-Asp-Glu-OH)
HIV-1 protease [1]; [5]
  Ki: 5400 ± 380 µM

## N=C(N)NCCC[C@H](N)C(=O)N[C@@H](CCC(=O)O)C(=O)N[C@@H](CC(=O)O)C(=O)O [Peptide 5, Arg--Glu--Asp] (H-Arg-Glu-Asp-OH)
HIV-1 protease [1]; [5]
  Ki: 3360 ± 400 µM

## N[C@@H](CCC(=O)O)C(=O)N[C@@H](CC(=O)O)C(=O)N[C@@H](Cc1ccccc1)C(=O)O [Peptide 12, Glu--Asp--Phe] (H-Glu-Asp-Phe-OH)
HIV-1 protease [1]; [5]
  Ki: 25 ± 3 µM
HIV-1 protease [1]; [6]
  Ki: 15 ± 2 µM
HIV-1 protease [1]; [7]
  Ki: 410 ± 25 µM
HIV-1 protease [3]
  Ki: 410 ± 25 µM

## CC(C)C[C@H](NC(=O)[C@@H](N)CC(=O)O)C(=O)N[C@@H](C)C(=O)N[C@@H](Cc1ccccc1)C(=O)O [Peptide 6, Asp--Leu--Ala--Phe] (H-DLAF-OH)
HIV-1 protease [1]; [5]
  Ki: 270 ± 25 µM
HIV-1 protease [1]; [6]
  Ki: 270 ± 25 µM
HIV-1 protease [1]; [7]
  Ki: 3260 ± 390 µM
HIV-1 protease [3]
  Ki: 3260 ± 390 µM

## TLNF*PISP
HIV-1 protease [2]; Pol cleavage sites
  kcat /Km: 24000 M⁻¹ s⁻¹

## CC(C)C[C@H](NC(=O)[C@H](CCC(=O)O)NC(=O)[C@@H](N)CCC(=O)O)C(=O)O [Peptide 8, Glu--Glu--Leu] (H-Glu-Glu-Leu-OH)
HIV-1 protease [1]; [5]
  Ki: 310 ± 25 µM

## N[C@@H](CCC(=O)O)C(=O)O [Peptide 16, Glutamic acid, reference compound]
HIV-1 protease [1]
  Ki: > 50000 µM

## ERQANFLRED
Mature HIV-1 protease
  cleaved bond: Asn-Phe

## N[C@@H](CC(=O)O)C(=O)N[C@@H](CC(=O)O)C(=O)O [Peptide 13, Asp--Asp] (H-Asp-Asp-OH)
HIV-1 protease [1]
  Ki: 970 ± 140 µM

## FLRQNLAF [Peptide 18, Phe--Leu--Arg--Gln--Asn--Leu--Ala--Phe]
HIV-1 protease [1]; [5]
  Ki: 2000 µM

## ERQANFLRED [ERQAN*FLRED, Glu-Arg-Gln-Ala-Asn-Phe-Leu-Arg-Glu-Asp]
HIV-1 protease [2]; Pol cleavage sites
  kcat /Km: 0.019 M⁻¹ s⁻¹

## AETF*YVDG
HIV-1 protease [2]; Pol cleavage sites
  kcat /Km: 10000 M⁻¹ s⁻¹

## ARVL*AEAM
HIV-1 protease [2]; Gag cleavage sites
  kcat /Km: 90000 M⁻¹ s⁻¹

## N[C@@H](CC(=O)O)C(=O)O [Peptide 17, Aspartic acid, reference compound]
HIV-1 protease [1]
  Ki: > 50000 µM

## CC(C)C[C@H](NC(=O)[C@H](CCC(=O)O)NC(=O)[C@@H](N)CC(=O)O)C(=O)O [Peptide 7, Asp--Glu--Leu] (H-Asp-Glu-Leu-OH)
HIV-1 protease [1]; [5]
  Ki: 230 ± 20 µM

## CC(C)C[C@H](NC(=O)[C@H](CC(N)=O)NC(=O)[C@@H](N)CCC(=O)O)C(=O)O [Peptide 10, Glu--Asn--Leu] (H-Glu-Asn-Leu-OH)
HIV-1 protease [1]; [5]
  Ki: 3070 ± 210 µM

## RQAN*FLGK
HIV-1 protease [2]; Gag cleavage sites
  kcat /Km: 1600 M⁻¹ s⁻¹

## GEDLAF [Peptide 2, Gly--Glu--Asp--Leu--Ala--Phe]
HIV-1 protease [1]; [5]
  Ki: 64 ± 13 µM

## NC(=O)CC[C@H](NC(=O)[C@@H](N)CC(=O)O)C(=O)O [Peptide 15, Asp--Gln] (H-Asp-Gln-OH)
HIV-1 protease [1]; [5]
  Ki: > 1000 µM

## RKIL*FLDG
HIV-1 protease [2]; Pol cleavage sites
  kcat /Km: 200000 M⁻¹ s⁻¹
